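Where inhibition never reached the appropriate level, the endpoint shown equals the highest concentration tested. Otherwise, values were interpolated linearly from a five-concentration, 48-hour dose response in 96-well plates. Here, GI50 denotes the concentration required for 50% inhibition of growth. The concentration for full growth arrest is given as TGI.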
Key:
Test in all cases: DTP human tumour cell line panel, 48 h
LOX IMVI melanoma = system: LOX IMVI melanoma
SK-MEL-2 melanoma = system: SK-MEL-2 melanoma
T-47D breast = system: T-47D breast
MOLT-4 leukemia = system: MOLT-4 leukemia
MDA-MB-231 breast = system: MDA-MB-231 breast
U251 CNS = system: U251 CNS
OVCAR-4 ovarian = system: OVCAR-4 ovarian
NCI-H23 lung = system: NCI-H23 lung
CCRF-CEM leukemia = system: CCRF-CEM leukemia
SR leukemia = system: SR leukemia
HCT-116 colon = system: HCT-116 colon
IGROV1 ovarian = system: IGROV1 ovarian
BT-549 breast = system: BT-549 breast
EKVX NSCLC = system: EKVX NSCLC
SF-295 CNS = system: SF-295 CNS
MALME-3M melanoma = system: MALME-3M melanoma
HS 578T breast = system: HS 578T breast
UACC-62 melanoma = system: UACC-62 melanoma
OVCAR-3 ovarian = system: OVCAR-3 ovarian
HCT-15 colon = system: HCT-15 colon
ACHN renal = system: ACHN renal
PC-3 prostate = system: PC-3 prostate
SNB-75 CNS = system: SNB-75 CNS
SF-539 CNS = system: SF-539 CNS
M14 melanoma = system: M14 melanoma
KM12 colon = system: KM12 colon
SK-MEL-28 melanoma = system: SK-MEL-28 melanoma
SK-OV-3 ovarian = system: SK-OV-3 ovarian
SF-268 CNS = system: SF-268 CNS
NCI-H460 lung = system: NCI-H460 lung
OVCAR-8 ovarian = system: OVCAR-8 ovarian
TK-10 renal = system: TK-10 renal
NCI-H522 lung = system: NCI-H522 lung
SK-MEL-5 melanoma = system: SK-MEL-5 melanoma
A498 renal = system: A498 renal
HCC-2998 colon = system: HCC-2998 colon
NCI/ADR-RES ovarian = system: NCI/ADR-RES ovarian
SW-620 colon = system: SW-620 colon
COLO 205 colon = system: COLO 205 colon
K-562 leukemia = system: K-562 leukemia
MCF7 breast = system: MCF7 breast
SN12C renal = system: SN12C renal
MDA-MB-435 = system: MDA-MB-435
UACC-257 melanoma = system: UACC-257 melanoma
HL-60(TB) leukemia = system: HL-60(TB) leukemia
HOP-92 NSCLC = system: HOP-92 NSCLC
HOP-62 NSCLC = system: HOP-62 NSCLC
OVCAR-5 ovarian = system: OVCAR-5 ovarian
786-0 renal = system: 786-0 renal
SNB-19 CNS = system: SNB-19 CNS
DU-145 prostate = system: DU-145 prostate
HT29 colon = system: HT29 colon
NCI-H226 lung = system: NCI-H226 lung
UO-31 renal = system: UO-31 renal

## CC1(C)Cc2c(Br)c(Br)c(Br)c(OCC(O)CN3CCN(c4ccccn4)CC3)c2O1 (stereo not drawn)
LOX IMVI melanoma
  GI50: 9.22 µM
  TGI: 21.4 µM
SK-MEL-2 melanoma
  GI50: 4.95 µM
  TGI: 19.2 µM
T-47D breast
  GI50: 18.3 µM
  TGI: > 100 µM
MOLT-4 leukemia
  GI50: 3.19 µM
  TGI: 19 µM
MDA-MB-231 breast
  GI50: 12.3 µM
  TGI: 28.2 µM
U251 CNS
  GI50: 11.3 µM
  TGI: 23.3 µM
OVCAR-4 ovarian
  GI50: 12.1 µM
  TGI: 26.7 µM
NCI-H23 lung
  GI50: 13.4 µM
  TGI: 32 µM
CCRF-CEM leukemia
  GI50: 3.81 µM
  TGI: > 100 µM
SR leukemia
  GI50: 4.38 µM
  TGI: 24.7 µM
HCT-116 colon
  GI50: 5.8 µM
  TGI: 23.5 µM
IGROV1 ovarian
  GI50: 10.7 µM
  TGI: 26 µM
BT-549 breast
  GI50: 11.6 µM
  TGI: 26 µM
EKVX NSCLC
  GI50: 11.3 µM
  TGI: 43.2 µM
SF-295 CNS
  GI50: 6.11 µM
  TGI: 21.4 µM
MALME-3M melanoma
  GI50: 17 µM
  TGI: 36.9 µM
HS 578T breast
  GI50: 18.6 µM
  TGI: 39.2 µM
UACC-62 melanoma
  GI50: 14.1 µM
  TGI: 28.1 µM
OVCAR-3 ovarian
  GI50: 9.54 µM
  TGI: 23.4 µM
HCT-15 colon
  GI50: 10.9 µM
  TGI: 26.5 µM
ACHN renal
  GI50: 12.5 µM
  TGI: 91.4 µM
PC-3 prostate
  GI50: 5.58 µM
  TGI: 22.5 µM
SNB-75 CNS
  GI50: 16.3 µM
  TGI: 39 µM
SF-539 CNS
  GI50: 13.6 µM
  TGI: 29.2 µM
M14 melanoma
  GI50: 13.3 µM
  TGI: 29.7 µM
KM12 colon
  GI50: 7.78 µM
  TGI: 24.5 µM
SK-MEL-28 melanoma
  GI50: 18 µM
  TGI: 32.7 µM
SK-OV-3 ovarian
  GI50: 33.2 µM
  TGI: > 100 µM
SF-268 CNS
  GI50: 12.9 µM
  TGI: 39.6 µM
NCI-H460 lung
  GI50: 9.43 µM
  TGI: 22.9 µM
OVCAR-8 ovarian
  GI50: 20.9 µM
  TGI: 45.3 µM
TK-10 renal
  GI50: 14.3 µM
  TGI: 30.8 µM
NCI-H522 lung
  GI50: 16.8 µM
  TGI: 35.5 µM
SK-MEL-5 melanoma
  GI50: 10.8 µM
  TGI: 23.1 µM
A498 renal
  GI50: 14.8 µM
  TGI: 29.5 µM
HCC-2998 colon
  GI50: 3.68 µM
  TGI: 13.7 µM
NCI/ADR-RES ovarian
  GI50: 16.3 µM
  TGI: 42.6 µM
SW-620 colon
  GI50: 15.2 µM
  TGI: 29.2 µM
COLO 205 colon
  GI50: 15 µM
  TGI: 34.4 µM
K-562 leukemia
  GI50: 4.1 µM
  TGI: 20.3 µM
MCF7 breast
  GI50: 10.3 µM
  TGI: 22.4 µM
SN12C renal
  GI50: 14.4 µM
  TGI: 28.4 µM
MDA-MB-435
  GI50: 14.3 µM
  TGI: 33.6 µM
UACC-257 melanoma
  GI50: 16.6 µM
  TGI: 39.7 µM
HL-60(TB) leukemia
  GI50: 2.8 µM
  TGI: 11.1 µM
HOP-92 NSCLC
  GI50: 4.87 µM
  TGI: 19.8 µM
HOP-62 NSCLC
  GI50: 13.2 µM
  TGI: 27.7 µM
OVCAR-5 ovarian
  GI50: 16.2 µM
  TGI: 31.3 µM
786-0 renal
  GI50: 12.5 µM
  TGI: 26.1 µM
SNB-19 CNS
  GI50: 20.8 µM
  TGI: 49.6 µM
DU-145 prostate
  GI50: 14.4 µM
  TGI: 30.6 µM
HT29 colon
  GI50: 5.5 µM
  TGI: 18 µM
NCI-H226 lung
  GI50: 15.3 µM
  TGI: 38.2 µM
UO-31 renal
  GI50: 11 µM
  TGI: 24 µM
